What all share (experiment): relative viability (nuclei count vs DMSO), 5 days (fraction); higher = more cells survive
Compound in the assay “Mirin + Trametinib”: N=C1NC(=O)/C(=C/c2ccc(O)cc2)S1 [Mirin] + CC(=O)Nc1cccc(-n2c(=O)n(C3CC3)c(=O)c3c(Nc4ccc(I)cc4F)n(C)c(=O)c(C)c32)c1 [Trametinib] (partner 0.02 µM)
In short, it runs like this:
(§1)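 After 5 days of treatment, lung cancer cells in 1536-well plates were fixed and stained in a single step (final 0.05% Triton X-100, 1% formaldehyde, 1 ug/ml Hoechst) and their nuclei counted on 4× images. Treatment had been applied by pin tool the day after seeding as one drug alone or as a fixed anchor-drug dose with five library-drug doses (not always all listed) in √10 steps. Relative viability is the nuclei count of treated wells divided by that of vehicle wells, and values are medians of duplicate plates.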

Compound in the assay “Mirin + Decitabine”: N=C1NC(=O)/C(=C/c2ccc(O)cc2)S1 [Mirin] + Nc1ncn([C@H]2C[C@H](O)[C@@H](CO)O2)c(=O)n1 [Decitabine] (partner 2 µM)
In short, it runs like this: as §1

Compound in assay [1]: CCn1c(-c2nonc2N)nc2cnc(Oc3cccc(NC(=O)c4ccc(OCCN5CCOCC5)cc4)c3)cc21 + Cc1cc(Nc2cc(N3CCN(C)CC3)nc(Sc3ccc(NC(=O)C4CC4)cc3)n2)n[nH]1 [Tozasertib] (partner 0.1 µM)
In short, it runs like this: as §1

Compound in assay [2]: CCC1=CN=CN=C1N2CCN(CC2)CC3=NC4=C(N3)C=C(C=C4)C(F)(F)F + CS(=O)(=O)N1CCN(Cc2cc3nc(-c4cccc5[nH]ncc45)nc(N4CCOCC4)c3s2)CC1 [Pictilisib] (partner 1 µM)
In short, it runs like this: as §1

With UMC-11, the relative viability in the assay with Mirin + Trametinib (first compound 0.25 µM) stood at 0.721; in the assay with Mirin + Trametinib (first compound 0.7906 µM), 0.381; with Mirin + Trametinib (first compound 2.5 µM), 0.778; with Mirin + Trametinib (first compound 7.906 µM) it was 0.558; with Mirin + Trametinib (first compound 25 µM) it was 0.496; in the assay with Mirin + Decitabine (first compound 0.25 µM), 0.533. Besides, the relative viability stood at 0.572 with Mirin + Decitabine (first compound 2.5 µM); 0.54 in the assay with Mirin + Decitabine (first compound 7.906 µM); 0.418 in the assay with Mirin + Decitabine (first compound 25 µM); 0.206 in assay [1] (first compound 0.04 µM); 0.212 in assay [1] (first compound 0.1265 µM); 0.205 in assay [1] (first compound 0.4 µM). The relative viability in assay [1] (first compound 1.265 µM) amounted to 0.16; in assay [1] (first compound 4 µM), 0.186; in assay [2] (first compound 0.04 µM), 0.723; in assay [2] (first compound 0.1265 µM) it was 0.832; in assay [2] (first compound 0.4 µM), 0.706; in assay [2] (first compound 1.265 µM), 0.548. The relative viability in assay [2] (first compound 4 µM) came out at 0.741.

The values are drawn from the supplement of paper PMC10307832.
